{"source": "patent US20210085640A1", "about": "“ACYLATED CATECHIN POLYPHENOLS AND METHODS OF THEIR USE FOR THE TREATMENT OF CANCER” (Flagship Pioneering Innovations V, Inc., priority 2018, published 2021)", "type_in_all_cases": "cell-based", "key": {"[1]": {"tested_on": "T24 bladder cancer cells", "experiment": "Cancer cell survival (CellTiter-Glo), T24", "settings": "Homo sapiens, 72 h, read-out: Cell survival at given concentration", "method_in_brief": "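Viability by CellTiter-Glo after 72 h compound treatment of T24 bladder cancer cells (4×10^3/well, plated the night before), nine concentration levels in triplicate. Percent survival normalised to untreated cells minus medium background, from which IC50 was determined.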"}, "[2]": {"tested_on": "Daudi lymphoma cancer cells", "experiment": "Cancer cell survival (CellTiter-Glo), Daudi", "settings": "Homo sapiens, 72 h, read-out: Cell survival at given concentration", "method_in_brief": "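Daudi cells (4×10^3/well) were exposed for 72 h at 37 °C to nine concentrations of compound, added as 10× solutions spanning 1 μM–10 mM (fatty acids) or 100 nM–1 mM (others). CellTiter-Glo luminescence gave % survival versus untreated, medium-blank corrected; IC50 derived.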"}, "[3]": {"tested_on": "MCF7 breast cancer cells", "experiment": "Cancer cell survival (CellTiter-Glo), MCF7", "settings": "Homo sapiens, 72 h, read-out: Cell survival at given concentration", "method_in_brief": "(§1)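 CellTiter-Glo luminescence after 72 h compound exposure (37 C, 5% CO2; nine concentration levels, triplicate) of overnight-plated cells at 4×10^3 per well. IC50 calculated from survival % relative to untreated cells after medium-background subtraction.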"}, "[4]": {"tested_on": "HCT 116 colorectal cancer cells", "experiment": "Cancer cell survival (CellTiter-Glo), HCT 116", "settings": "Homo sapiens, HCT 116 cells, 72 h, read-out: Cell survival at given concentration", "method_in_brief": "as §1"}, "[5]": {"tested_on": "A549 lung cancer cells", "experiment": "Cancer cell survival (CellTiter-Glo), A549", "settings": "Homo sapiens, 72 h, read-out: Cell survival at given concentration", "method_in_brief": "as §1"}, "[6]": {"tested_on": "PC-3 prostate cancer cells", "experiment": "Cancer cell survival (CellTiter-Glo), PC-3", "settings": "Homo sapiens, PC-3 cells, 72 h, read-out: Cell survival at given concentration", "method_in_brief": "as §1"}, "[7]": {"tested_on": "A-431 skin cancer cells", "experiment": "Cancer cell survival (CellTiter-Glo), A-431", "settings": "Homo sapiens, A-431 cells, 72 h, read-out: Cell survival at given concentration", "method_in_brief": "as §1"}, "[8]": {"tested_on": "AGS stomach cancer cells", "experiment": "Cancer cell survival (CellTiter-Glo), AGS", "settings": "72 h", "method_in_brief": "as §1"}, "[9]": {"experiment": "Human Regulatory T Cell Differentiation Assay", "settings": "human, primary naïve CD4+ T cells isolated from PBMCs, read-out: Cell viability % DMSO", "method_in_brief": "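Naïve CD4+ T cells isolated from healthy-donor PBMCs, cultured 6 days with 5 ng/ml TGF-β, 100 U/ml IL-2 and CD3/CD28/CD2 activator, with or without compound. Flow cytometry of live cells; Tregs as CD4+CD25+FOXP3+ percentage of total CD4+ T cells, compared by one-way ANOVA.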"}}, "data": [{"smiles": "O=C[C@H](O)[C@@H](O)[C@@H](O)CO", "note": "[L-arabinose]", "values": [{"measurement": "viability at 0.101 µM", "setting": "[1]; T-24, 101 nM", "value": 100, "unit": "%"}, {"measurement": "viability at 0.318 µM", "setting": "[1]; T-24, 318 nM", "value": 103, "unit": "%"}, {"measurement": "viability at 1 µM", "setting": "[1]; T-24, 1 μM", "value": 100, "unit": "%"}, {"measurement": "viability at 3 µM", "setting": "[1]; T-24, 3 μM", "value": 103, "unit": "%"}, {"measurement": "viability at 10 µM", "setting": "[1]; T-24, 10 μM", "value": 102, "unit": "%"}, {"measurement": "viability at 32 µM", "setting": "[1]; T-24, 32 μM", "value": 105, "unit": "%"}, {"measurement": "viability at 100 µM", "setting": "[1]; T-24, 100 μM", "value": 101, "unit": "%"}, {"measurement": "viability at 316 µM", "setting": "[1]; T-24, 316 μM", "value": 101, "unit": "%"}, {"measurement": "viability at 1000 µM", "setting": "[1]; T-24, 1000 μM", "value": 104, "unit": "%"}, {"measurement": "viability at 0.101 µM", "setting": "[2]; 101 nM", "value": 100, "unit": "%"}, {"measurement": "viability at 0.318 µM", "setting": "[2]; 318 nM", "value": 100, "unit": "%"}, {"measurement": "viability at 1 µM", "setting": "[2]; 1 μM", "value": 100, "unit": "%"}, {"measurement": "viability at 3 µM", "setting": "[2]; 3 μM", "value": 99, "unit": "%"}, {"measurement": "viability at 10 µM", "setting": "[2]; 10 μM", "value": 102, "unit": "%"}, {"measurement": "viability at 32 µM", "setting": "[2]; 32 μM", "value": 102, "unit": "%"}, {"measurement": "viability at 100 µM", "setting": "[2]; 100 μM", "value": 103, "unit": "%"}, {"measurement": "viability at 316 µM", "setting": "[2]; 316 μM", "value": 102, "unit": "%"}, {"measurement": "viability at 1000 µM", "setting": "[2]; 1000 μM", "value": 102, "unit": "%"}, {"measurement": "viability at 0.101 µM", "setting": "[3]; 101 nM", "value": 99, "unit": "%"}, {"measurement": "viability at 0.318 µM", "setting": "[3]; 318 nM", "value": 101, "unit": "%"}, {"measurement": "viability at 1 µM", "setting": "[3]; 1 μM", "value": 98, "unit": "%"}, {"measurement": "viability at 3 µM", "setting": "[3]; 3 μM", "value": 101, "unit": "%"}, {"measurement": "viability at 10 µM", "setting": "[3]; 10 μM", "value": 99, "unit": "%"}, {"measurement": "viability at 32 µM", "setting": "[3]; 32 μM", "value": 101, "unit": "%"}, {"measurement": "viability at 100 µM", "setting": "[3]; 100 μM", "value": 99, "unit": "%"}, {"measurement": "viability at 316 µM", "setting": "[3]; 316 μM", "value": 98, "unit": "%"}, {"measurement": "viability at 1000 µM", "setting": "[3]; 1000 μM", "value": 98, "unit": "%"}, {"measurement": "viability at 0.101 µM", "setting": "[4]; 101 nM", "value": 101, "unit": "%"}, {"measurement": "viability at 0.318 µM", "setting": "[4]; 318 nM", "value": 101, "unit": "%"}, {"measurement": "viability at 1 µM", "setting": "[4]; 1 μM", "value": 101, "unit": "%"}, {"measurement": "viability at 3 µM", "setting": "[4]; 3 μM", "value": 103, "unit": "%"}, {"measurement": "viability at 10 µM", "setting": "[4]; 10 μM", "value": 103, "unit": "%"}, {"measurement": "viability at 32 µM", "setting": "[4]; 32 μM", "value": 104, "unit": "%"}, {"measurement": "viability at 100 µM", "setting": "[4]; 100 μM", "value": 104, "unit": "%"}, {"measurement": "viability at 316 µM", "setting": "[4]; 316 μM", "value": 102, "unit": "%"}, {"measurement": "viability at 1000 µM", "setting": "[4]; 1000 μM", "value": 99, "unit": "%"}, {"measurement": "viability at 0.101 µM", "setting": "[5]; 101 nM", "value": 101, "unit": "%"}, {"measurement": "viability at 0.318 µM", "setting": "[5]; 318 nM", "value": 103, "unit": "%"}, {"measurement": "viability at 1 µM", "setting": "[5]; 1 μM", "value": 104, "unit": "%"}, {"measurement": "viability at 3 µM", "setting": "[5]; 3 μM", "value": 102, "unit": "%"}, {"measurement": "viability at 10 µM", "setting": "[5]; 10 μM", "value": 103, "unit": "%"}, {"measurement": "viability at 32 µM", "setting": "[5]; 32 μM", "value": 103, "unit": "%"}, {"measurement": "viability at 100 µM", "setting": "[5]; 100 μM", "value": 102, "unit": "%"}, {"measurement": "viability at 316 µM", "setting": "[5]; 316 μM", "value": 102, "unit": "%"}, {"measurement": "viability at 1000 µM", "setting": "[5]; 1000 μM", "value": 104, "unit": "%"}, {"measurement": "viability at 0.101 µM", "setting": "[6]; 101 nM", "value": 103, "unit": "%"}, {"measurement": "viability at 0.318 µM", "setting": "[6]; 318 nM", "value": 100, "unit": "%"}, {"measurement": "viability at 1 µM", "setting": "[6]; 1 μM", "value": 100, "unit": "%"}, {"measurement": "viability at 3 µM", "setting": "[6]; 3 μM", "value": 101, "unit": "%"}, {"measurement": "viability at 10 µM", "setting": "[6]; 10 μM", "value": 103, "unit": "%"}, {"measurement": "viability at 32 µM", "setting": "[6]; 32 μM", "value": 101, "unit": "%"}, {"measurement": "viability at 100 µM", "setting": "[6]; 100 μM", "value": 100, "unit": "%"}, {"measurement": "viability at 316 µM", "setting": "[6]; 316 μM", "value": 101, "unit": "%"}, {"measurement": "viability at 1000 µM", "setting": "[6]; 1000 μM", "value": 100, "unit": "%"}, {"measurement": "viability at 0.101 µM", "setting": "[7]; 101 nM", "value": 103, "unit": "%"}, {"measurement": "viability at 0.318 µM", "setting": "[7]; 318 nM", "value": 102, "unit": "%"}, {"measurement": "viability at 1 µM", "setting": "[7]; 1 μM", "value": 102, "unit": "%"}, {"measurement": "viability at 3 µM", "setting": "[7]; 3 μM", "value": 103, "unit": "%"}, {"measurement": "viability at 10 µM", "setting": "[7]; 10 μM", "value": 103, "unit": "%"}, {"measurement": "viability at 32 µM", "setting": "[7]; 32 μM", "value": 105, "unit": "%"}, {"measurement": "viability at 100 µM", "setting": "[7]; 100 μM", "value": 105, "unit": "%"}, {"measurement": "viability at 316 µM", "setting": "[7]; 316 μM", "value": 105, "unit": "%"}, {"measurement": "viability at 1000 µM", "setting": "[7]; 1000 μM", "value": 102, "unit": "%"}, {"measurement": "viability at 0.101 µM", "setting": "[8]; 101 nM, read-out: Cell survival at given concentration", "value": 100, "unit": "%"}, {"measurement": "viability at 0.318 µM", "setting": "[8]; 318 nM, read-out: Cell survival at given concentration", "value": 102, "unit": "%"}, {"measurement": "viability at 1 µM", "setting": "[8]; 1 μM, Table 10.1, read-out: Cell survival at given concentration", "value": 101, "unit": "%"}, {"measurement": "viability at 3 µM", "setting": "[8]; 3 μM, Table 10.1, read-out: Cell survival at given concentration", "value": 102, "unit": "%"}, {"measurement": "viability at 10 µM", "setting": "[8]; 10 μM, Table 10.1, read-out: Cell survival at given concentration", "value": 102, "unit": "%"}, {"measurement": "viability at 32 µM", "setting": "[8]; 32 μM, Table 10.1, read-out: Cell survival at given concentration", "value": 104, "unit": "%"}, {"measurement": "viability at 100 µM", "setting": "[8]; 100 μM, Table 10.1, read-out: Cell survival at given concentration", "value": 105, "unit": "%"}, {"measurement": "viability at 316 µM", "setting": "[8]; 316 μM, read-out: Cell survival at given concentration", "value": 102, "unit": "%"}, {"measurement": "viability at 1000 µM", "setting": "[8]; 1000 μM, read-out: Cell survival at given concentration", "value": 101, "unit": "%"}, {"measurement": "viability at 6 days, 0.5 mM", "setting": "[9]; 0.5 mM", "value": "90 to 110", "unit": "%"}, {"measurement": "viability at 6 days, 1 mM", "setting": "[9]; 1 mM", "value": "90 to 110", "unit": "%"}]}]}
